For one assay, the target named is Genome polyprotein (dengue virus type 2, UniProt P29990). Description: flavivirus cap methylation enzyme inhibition – biochemical, confirmation dose response, primary screen (AID 588689). The format is functional.
Another assay has as its target T1, Caspase-6 (Homo sapiens, UniProt P55212).
T1 sequence (P55212 whole entry): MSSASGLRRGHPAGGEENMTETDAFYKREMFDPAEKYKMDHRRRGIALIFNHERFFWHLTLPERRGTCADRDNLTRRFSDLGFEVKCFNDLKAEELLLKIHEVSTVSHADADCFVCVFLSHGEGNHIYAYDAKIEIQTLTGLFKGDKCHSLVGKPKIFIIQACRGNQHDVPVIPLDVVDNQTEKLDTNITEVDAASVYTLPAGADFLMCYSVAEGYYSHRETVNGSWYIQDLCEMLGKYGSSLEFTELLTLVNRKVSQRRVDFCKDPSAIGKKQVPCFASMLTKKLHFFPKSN
Description: inhibition of CASP6 peptide cleavage – biochemical, VEID-R110 fluorescence, cherry-pick, dose response (AID 720632).

The subject of another assay is Streptococcus. Kind of assay: GAS UMAA2166 growth inhibition – luminescence, BacTiterGlo, counter-screen for streptokinase expression inhibitor project, dose response (AID 1915).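 Note: potency for reduction of bacterial viability or growth.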 The format is functional, organism-based. Background: The purpose of a counterscreen is to sort out artefacts and off-target activity.

Calls of active or inactive are those of the source.

A word on the IC50: it is the concentration needed to halve the response being measured. In general, AC50 refers to the concentration giving half of the maximal activity seen. One may read the EC50 as the concentration giving half of the maximal effect.

Genome polyprotein, sequence (P29990 2492-3391 limits assumed): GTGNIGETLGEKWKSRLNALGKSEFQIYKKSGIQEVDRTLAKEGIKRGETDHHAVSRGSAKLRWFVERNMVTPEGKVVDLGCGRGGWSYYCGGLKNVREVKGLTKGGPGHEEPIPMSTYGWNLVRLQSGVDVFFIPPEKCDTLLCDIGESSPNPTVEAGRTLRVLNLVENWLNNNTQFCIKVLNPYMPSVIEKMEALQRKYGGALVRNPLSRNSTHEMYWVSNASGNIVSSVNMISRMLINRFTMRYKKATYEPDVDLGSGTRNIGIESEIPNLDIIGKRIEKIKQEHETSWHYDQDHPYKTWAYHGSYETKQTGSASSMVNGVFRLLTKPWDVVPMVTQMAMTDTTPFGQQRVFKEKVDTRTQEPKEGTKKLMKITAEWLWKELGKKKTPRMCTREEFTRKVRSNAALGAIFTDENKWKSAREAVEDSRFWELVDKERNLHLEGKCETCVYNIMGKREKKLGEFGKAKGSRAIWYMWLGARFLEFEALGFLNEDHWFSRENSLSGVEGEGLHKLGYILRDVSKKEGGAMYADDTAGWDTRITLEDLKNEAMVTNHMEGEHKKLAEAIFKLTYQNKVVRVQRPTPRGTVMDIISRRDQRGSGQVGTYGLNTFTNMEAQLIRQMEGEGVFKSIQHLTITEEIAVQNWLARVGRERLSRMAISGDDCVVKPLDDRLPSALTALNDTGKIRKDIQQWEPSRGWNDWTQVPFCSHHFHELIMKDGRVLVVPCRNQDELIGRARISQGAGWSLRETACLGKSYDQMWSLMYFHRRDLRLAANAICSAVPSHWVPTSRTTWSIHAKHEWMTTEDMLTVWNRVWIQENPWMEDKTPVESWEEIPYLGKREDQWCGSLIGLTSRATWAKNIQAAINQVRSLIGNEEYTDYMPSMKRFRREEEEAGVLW

On to `NC(=O)C1CCN(C2=C(Cl)C(=O)c3ccccc3C2=O)CC1`, for which the IC50 on Genome polyprotein is 26 µM (active). In the case of `O=c1c2ccccc2nc(/C=C/c2cccnc2)n1Cc1ccccc1`, the AC50 on Caspase-6 was 11.8 µM (active).

As to `O=C(O)c1ccc(N/N=C/c2ccc(OC(=O)c3ccccc3Cl)cc2)cc1`, the EC50 in the assay on Streptococcus was 131 µM (active).

Values taken from ChEMBL document CHEMBL1201862, “PubChem BioAssay data set” (2004).
